From US11013736B2, “Oral solid preparation and use thereof” (WUHAN LL SCIENCE AND TECHNOLOGY DEVELOPMENT CO., LTD., priority 2016, dated 2021)
Entries after “also recorded” stand apart in the source; their conditions may differ.

Tests used:
[1] = system: spontaneously hypertensive rats; assay: Antihypertensive efficacy test in spontaneously hypertensive rats (systolic blood pressure and heart rate by implanted sensor); type: in vivo; conditions: SHR; for Systolic blood pressure compared with the control group: after 3 hours of administration; for Systolic blood pressure change, 1 hour after administration / Systolic blood pressure change, 3 hours after administration / Systolic blood pressure change, 5 hours after administration / Systolic blood pressure change, 7 hours after administration / Systolic blood pressure change, 10 hours after administration / Systolic blood pressure change, 24 hours after administration / Systolic blood pressure change, before administration: intragastric; for Systolic blood pressure change, 1 hour after administration / Systolic blood pressure change, 3 hours after administration / Systolic blood pressure change, 5 hours after administration / Systolic blood pressure change, 7 hours after administration / Systolic blood pressure change, 10 hours after administration / Systolic blood pressure change, 24 hours after administration / Heart rates change, 1 hour after administration / Heart rates change, 3 hours after administration / Heart rates change, 5 hours after administration / Heart rates change, 7 hours after administration / Heart rates change, 10 hours after administration / Heart rates change, 24 hours after administration: change vs before administration; for Systolic blood pressure change, 1 hour after administration / Systolic blood pressure change, 3 hours after administration / Systolic blood pressure change, 5 hours after administration / Systolic blood pressure change, 7 hours after administration / Systolic blood pressure change, 10 hours after administration / Systolic blood pressure change, 24 hours after administration / Systolic blood pressure change, before administration / Heart rates change, 1 hour after administration / Heart rates change, 3 hours after administration / Heart rates change, 5 hours after administration / Heart rates change, 7 hours after administration / Heart rates change, 10 hours after administration / Heart rates change, 24 hours after administration / Heart rates change, before administration: average ± standard error; for Systolic blood pressure change, before administration / Heart rates change, before administration: reference value; for Heart rates change, 1 hour after administration / Heart rates change, 3 hours after administration / Heart rates change, 5 hours after administration / Heart rates change, 7 hours after administration / Heart rates change, 10 hours after administration / Heart rates change, 24 hours after administration / Heart rates change, before administration: oral
Method: 12-week-old spontaneously hypertensive rats (hereinafter referred to as SHR, purchased from Beijing Weitong Lihua Experimental Animal Technology Co., Ltd.) were anesthetized with 2.5% sodium pentobarbital for intraperitoneal injection. After that, the blood pressure sensing catheter of hypertension implant was inserted into their abdominal aorta, while the implant was fixed to the abdominal wall, and then postoperative daily care is performed after suturing.
Rats with systolic blood pressure exceeding 160 mm Hg were divided into 3 groups (control group, compound (A) group and compound (B) group), wherein each group has 8 rats. The control group was administrated 0.5% sodium carboxymethylcellulose (hereinafter referred to as CMC-Na); the compound (B) group and the compound (A) group were respectively administered the compound (B) and the compound (A), both of which were dissolved by 0.5% CMC-Na, by intragastric administration, at a dose of 1 mg/kg (calculated by the effective dose of valsartan) and a volume calculated by 4 mL/kg.
The systolic blood pressure and heart rate of SHR were compared before and after administration (the systolic blood pressure and heart rate of SHR before administration as reference value), which were detected three times at each time point with the average value recorded.

[2] = Comparative stability test (total impurity content); type: physicochemical; conditions: 25° C., 60% relative humidity; for total impurity content % at 0 months / total impurity content % at 1 month / total impurity content % at 2 months / total impurity content % at 3 months / total impurity content % at 6 months: packed
Method: The stability of an amorphous form, a mixture of the crystalline forms I and the crystal II, the crystalline form II and the crystal form III of the compound of formula (A) were investigated. Specifically, the amorphous form, the mixture of the crystalline form I and the crystalline form II (weight ratio 1:2), the crystalline form II and the crystalline form III were taken 200 mg respectively to be investigated as follows:
Packing: Polyvinyl chloride (PVC) material ziplock bag (the inner layer) was vacuumized, aluminum foil (the middle layer) was vacuumized, and aluminum foil desiccant (the outer layer) was vacuum and filled in with nitrogen;
Inspection conditions: 25° C., 60% relative humidity. The indicator was the total impurity content, which is determined by detection of samples three times at each time point with the average value recorded. The time points for sampling include 0, 1, 2, 3 and 6 months after packing.

[3] = Comparative experiment of stability between crystalline form III and IV (drying overnight at room temperature, XRD); type: physicochemical
Excerpt: (4) Comparative experiment of stability between the crystalline form III and the crystalline form IV
The Crystalline form III and the crystalline form IV samples were respectively dried overnight at room temperature.

[4] = Room temperature competition test between crystalline forms (ethyl acetate suspension, XRD); type: physicochemical; conditions: for Relative stability under room temperature (competition test): ethyl acetate suspension
Method: (1) Competition experiment between the crystalline form I and the crystalline form II
Equivalent amounts of the crystalline form I and the crystalline form II samples were mixed well, added with 0.8 ml ethyl acetate to form a suspension, stirred overnight and detected by XRD.
(2) Competition experiment between the crystalline form II and the crystalline form III
Equivalent amounts of the crystalline form II and the crystalline form III samples were mixed well, added with 0.2 ml ethyl acetate to form a suspension, which was stirred overnight to obtain the crystalline form II determined by XRD detection.
(3) Competition experiment between crystalline form I and crystalline form III
Equivalent amounts of the crystalline form I and the crystalline form III samples were mixed uniformly, added with 0.2 ml ethyl acetate to form a suspension, which was stirred overnight, to obtain the crystalline form I determined by XRD detection.

[5] = Effect of tabletting processes on the crystalline form II (XRD); type: physicochemical; conditions: 50 mg, single punching machine, XRD vs crude sample
Method: Tabletting method: 50 mg of the crystalline form II was tableted under 20 kg and 25 kg pressure tabletting by a single punching machine.
The XRD of the obtained sample powder was compared with the XRD of the crude sample, the results are shown in FIG. 8 (from top to bottom: the crude sample, the sample after 25 kg pressure tabletting and the sample after 20 kg pressure tabletting).

[6] = Influences of high temperature and high humidity on the crystalline form II (XRD); type: physicochemical; conditions: XRD vs crude sample
Method: Two samples of 20 mg of the crystalline form II were respectively placed at 60° C. (sealed and shielded from light) and 85% relative humidity (exposed in the air at room temperature and shielded from light), detected by XRD after 10 days and compared with the XRD of the crude sample.

[7] = equivalent amounts, 0.2 ml ethyl acetate suspension, stirred overnight, XRD

Compound: CCOc1nc2cccc(C(=O)OC(C)OC(=O)OCc3nc(C)c(C)nc3C)c2n1Cc1ccc(-c2ccccc2-c2noc(=O)[n-]2)cc1.[K+] (single isomer, unassigned) [Compound (A)]
- Lowering of heart rate compared with the compound (B) group ([1]; 1 mg/kg): more potent with longer-lasting of lowering heart rate
- Antihypertensive effect compared with the compound (B) group ([1]; 1 mg/kg intragastric): more potent with longer-lasting antihypertensive effect
- Systolic blood pressure compared with the control group ([1]; 1 mg/kg): significantly decreased
- Systolic blood pressure change, 1 hour after administration ([1]; 1 mg/kg, 1 mg/kg): −7.0 ± 3.4 mmHg
- Systolic blood pressure change, 3 hours after administration ([1]; 1 mg/kg, 1 mg/kg): −34.3 ± 1.9 mmHg
- Systolic blood pressure change, 5 hours after administration ([1]; 1 mg/kg, 1 mg/kg): −46.5 ± 2.5 mmHg
- Systolic blood pressure change, 7 hours after administration ([1]; 1 mg/kg, 1 mg/kg): −49.4 ± 4.1 mmHg
- Systolic blood pressure change, 10 hours after administration ([1]; 1 mg/kg, 1 mg/kg): −45.3 ± 3.3 mmHg
- Systolic blood pressure change, 24 hours after administration ([1]; 1 mg/kg, 1 mg/kg): −25.9 ± 3.4 mmHg
- Systolic blood pressure change, before administration ([1]; 1 mg/kg): 0.0 ± 0.0 mmHg
- Heart rates change, 1 hour after administration ([1]; 1 mg/kg, 1 mg/kg): −3.6 ± 2.4 times/minute
- Heart rates change, 3 hours after administration ([1]; 1 mg/kg, 1 mg/kg): −5.0 ± 2.5 times/minute
- Heart rates change, 5 hours after administration ([1]; 1 mg/kg, 1 mg/kg): −10.1 ± 3.0 times/minute
- Heart rates change, 7 hours after administration ([1]; 1 mg/kg, 1 mg/kg): −17.5 ± 3.0 times/minute
- Heart rates change, 10 hours after administration ([1]; 1 mg/kg, 1 mg/kg): −25.4 ± 2.4 times/minute
- Heart rates change, 24 hours after administration ([1]; 1 mg/kg, 1 mg/kg): −28.6 ± 8 times/minute
- Heart rates change, before administration ([1]; 1 mg/kg): 0.0 ± 0.0 times/minute

Compound: CCOc1nc2cccc(C(=O)OC(C)OC(=O)OCc3nc(C)c(C)nc3C)c2n1Cc1ccc(-c2ccccc2-c2noc(=O)[n-]2)cc1.[K+] (centres unmarked) [crystalline form III]
- Chemical stability compared with the amorphous form [2]: better than the amorphous form
- total impurity content % at 0 months [2]: 1.56%
- total impurity content % at 1 month [2]: 2.55%
- total impurity content % at 2 months [2]: 2.98%
- total impurity content % at 3 months [2]: 3.34%
- total impurity content % at 6 months [2]: 3.76%
- Portion converted to the crystalline form I ([3]; dried overnight at room temperature, XRD): no more than 30%
- Stability at room temperature (drying experiment) [3]: superior to that of the crystalline form IV
- Crystal form transformation, competition form I vs form III [4, 7]: completely transformed into the crystalline form I
- Crystal form transformation, competition form II vs form III [4, 7]: completely transformed into the crystalline form II

Compound: CCOc1nc2cccc(C(=O)OC(C)OC(=O)OCc3nc(C)c(C)nc3C)c2n1Cc1ccc(-c2ccccc2-c2noc(=O)[n-]2)cc1.[K+] (centres unmarked) [crystalline form I]
- Chemical stability compared with the amorphous form [2]: better than the amorphous form
- total impurity content % at 0 months [2]: 1.11%
- total impurity content % at 1 month [2]: 1.62%
- total impurity content % at 2 months [2]: 2.34%
- total impurity content % at 3 months [2]: 2.49%
- total impurity content % at 6 months [2]: 3.10%
- Stability at room temperature (drying experiment) [3]: superior to that of the crystalline form IV
- Content of the crystalline form I in the obtained product ([4]; equivalent amounts of form I and form II, 0.8 ml ethyl acetate suspension, stirred overnight, XRD): about 5%
- Relative stability under room temperature (competition test) [4]: better than that of the crystalline form III

Compound: CCOc1nc2cccc(C(=O)OC(C)OC(=O)OCc3nc(C)c(C)nc3C)c2n1Cc1ccc(-c2ccccc2-c2noc(=O)[n-]2)cc1.[K+] (centres unmarked) [mixture of crystalline form I and II]
- Chemical stability compared with the amorphous form [2]: better than the amorphous form
- total impurity content % at 0 months [2]: 0.90%
- total impurity content % at 1 month [2]: 1.58%
- total impurity content % at 2 months [2]: 2.20%
- total impurity content % at 3 months [2]: 2.40%
- total impurity content % at 6 months [2]: 3.29%

Compound: CCOc1nc2cccc(C(=O)OC(C)OC(=O)OCc3nc(C)c(C)nc3C)c2n1Cc1ccc(-c2ccccc2-c2noc(=O)[n-]2)cc1.[K+] (centres unmarked) [crystalline form II]
- Chemical stability compared with the amorphous form [2]: better than the amorphous form
- total impurity content % at 0 months [2]: 1.29%
- total impurity content % at 1 month [2]: 1.43%
- total impurity content % at 2 months [2]: 1.59%
- total impurity content % at 3 months [2]: 1.82%
- total impurity content % at 6 months [2]: 1.87%
- Crystal form after tabletting, 20 kg pressure [5]: remains unchanged
- Crystal form after tabletting, 25 kg pressure [5]: remains unchanged
- Crystal form after 10 days at 85% relative humidity ([6]; exposed in the air at room temperature, shielded from light): remains unchanged
- Crystal form after 10 days at 60° C. ([6]; sealed and shielded from light): remains unchanged
- Stability at room temperature (drying experiment) [3]: superior to that of the crystalline form IV
- Relative stability under room temperature (competition test) [4]: better than that of the crystalline form I; also recorded: better than that of the crystalline form III

Compound: CCOc1nc2cccc(C(=O)OC(C)OC(=O)OCc3nc(C)c(C)nc3C)c2n1Cc1ccc(-c2ccccc2-c2noc(=O)[n-]2)cc1.[K+] (centres unmarked) [crystalline form IV]
- Crystal form transformation on drying at room temperature ([3]; dried at room temperature, XRD): converted to the crystalline form I; also recorded: completely transformed into the crystalline form I
- Stability at room temperature (drying experiment) [3]: poor stability

Compound: CCOc1nc2cccc(C(=O)OC(C)OC(=O)OCc3nc(C)c(C)nc3C)c2n1Cc1ccc(-c2ccccc2-c2noc(=O)[n-]2)cc1.[K+] (single isomer, unassigned) [Compound (B), reference compound]
- Systolic blood pressure compared with the control group ([1]; 1 mg/kg): significantly decreased
- Systolic blood pressure change, 1 hour after administration ([1]; 1 mg/kg, 1 mg/kg): −4.9 ± 4.8 mmHg
- Systolic blood pressure change, 3 hours after administration ([1]; 1 mg/kg, 1 mg/kg): −22.0 ± 3.6 mmHg
- Systolic blood pressure change, 5 hours after administration ([1]; 1 mg/kg, 1 mg/kg): −30.5 ± 3.5 mmHg
- Systolic blood pressure change, 7 hours after administration ([1]; 1 mg/kg, 1 mg/kg): −38.8 ± 2.3 mmHg
- Systolic blood pressure change, 10 hours after administration ([1]; 1 mg/kg, 1 mg/kg): −33.0 ± 1.7 mmHg
- Systolic blood pressure change, 24 hours after administration ([1]; 1 mg/kg, 1 mg/kg): −10.2 ± 2.1 mmHg
- Systolic blood pressure change, before administration ([1]; 1 mg/kg): 0.0 ± 0.0 mmHg
- Heart rates change, 1 hour after administration ([1]; 1 mg/kg, 1 mg/kg): −3.4 ± 2.6 times/minute
- Heart rates change, 3 hours after administration ([1]; 1 mg/kg, 1 mg/kg): −2.33 ± 2.6 times/minute
- Heart rates change, 5 hours after administration ([1]; 1 mg/kg, 1 mg/kg): −6.5 ± 2.8 times/minute
- Heart rates change, 7 hours after administration ([1]; 1 mg/kg, 1 mg/kg): −6.2 ± 3.0 times/minute
- Heart rates change, 10 hours after administration ([1]; 1 mg/kg, 1 mg/kg): −12.3 ± 2.8 times/minute
- Heart rates change, 24 hours after administration ([1]; 1 mg/kg, 1 mg/kg): −6.7 ± 2.6 times/minute
- Heart rates change, before administration ([1]; 1 mg/kg): 0.0 ± 0.0 times/minute
